One data set concerns WSN virus. The data set is described as follows: microbe, parasite or virus in culture. To be noted: unidentified influenza virus, MDCK, 48 h, read-out: IC50 (μM), antiinfluenza.
Another data set concerns the target NP WT trimer (Influenza A virus, UniProt P15682). The class given is binding, influenza A virus (WSN).
Another data set has as its system rWSN virus (parental). The data set is described as follows: microbe, parasite or virus in culture. The class given is cell-based. To be noted: unidentified influenza virus, MDCK, 48 h, read-out: Anti-rWSN IC50 (μM), parental.
Data set [1] can be described thus: Cytotoxicity assay in MDCK cells (MTS). In kind it is cell-based. To be noted: dog; concentration needed to inhibit 50% growth of MDCK cells in 48 h. The method, then:
In a 96-well plate, 1×10^4 MDCK cells were seeded per well and incubated for 24 h at 37° C. The MDCK cells were then incubated with compounds for 48 h at 35° C. The number of metabolically viable cells was determined by the MTS assay (Promega).

Data set [2] deals with RDRP activity of WSN virus. In kind it is biochemical, Influenza virus A/WSN/33 (H1N1).

Where a SMILES comes first, the peptide text is derived from it. Bridges are numbered along the chain shown (N, C = ends).

Chain of NP WT trimer (P15682 whole entry, looked up): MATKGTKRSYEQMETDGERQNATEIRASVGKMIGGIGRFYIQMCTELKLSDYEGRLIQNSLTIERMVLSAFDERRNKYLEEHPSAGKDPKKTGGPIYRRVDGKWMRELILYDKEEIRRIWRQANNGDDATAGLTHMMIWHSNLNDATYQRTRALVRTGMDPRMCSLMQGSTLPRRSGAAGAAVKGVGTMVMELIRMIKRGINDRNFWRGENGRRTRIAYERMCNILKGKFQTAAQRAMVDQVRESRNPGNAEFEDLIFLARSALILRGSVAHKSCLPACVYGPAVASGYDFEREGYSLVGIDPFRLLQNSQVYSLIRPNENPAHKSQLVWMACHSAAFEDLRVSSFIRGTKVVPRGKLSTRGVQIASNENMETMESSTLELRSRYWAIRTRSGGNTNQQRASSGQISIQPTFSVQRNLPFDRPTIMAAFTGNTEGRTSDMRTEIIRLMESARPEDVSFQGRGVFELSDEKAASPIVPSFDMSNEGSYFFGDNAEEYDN

Regarding `O=C(NCCCN1CCOCC1)c1csc(Nc2ccc(Cl)c(Cl)c2)n1` [compound 1], the IC50 (usually the concentration that inhibits the measured activity by half) with WSN virus turned out to be 2.7 µM; in the data set on rWSN virus (parental), 1.7 µM. Besides, the “effect of compounds on NP WT trimer (AUC)” value (“effect of compounds” for short) on NP WT trimer is “able to disrupt NP trimerization and induce formation of NP monomers”. Further, in data set [1], the CC50 (in general, the concentration at which the toxic effect on the cells reaches its halfway point) at 48 h came out at 35.6 µM.

Take `CCCCCCCCC(=O)NCC(=O)Nc1cccc(F)c1` [compound 2]: the half-inhibitory concentration (IC50) in the data set with WSN virus was determined as 37.5 µM. In addition, the “effect of compounds” value at NP WT trimer is “able to disrupt NP trimerization and induce formation of NP monomers”. The CC50 at 48 h in data set [1] was over 100 µM.

In the case of `CCCCCC(=O)NCC(=O)Nc1cc(Cl)ccc1Cl` [compound 3], the concentration for half-maximal inhibition (IC50) in the data set with WSN virus was found to be 118 µM. Besides, on NP WT trimer, the “effect of compounds” value was “able to disrupt NP trimerization and induce formation of NP monomers”. Also, in data set [1], the CC50 at 48 h was over 100 µM.

On to `Cc1cccc(CSc2nc(=O)n(CCCO)c3c2CCC3)c1` [compound 4], for which the IC50 in the data set on WSN virus is 39.7 µM. Besides, the “effect of compounds” value at NP WT trimer was “able to disrupt NP trimerization and induce formation of NP monomers”. For the same compound, in data set [1], the CC50 at 48 h is over 100 µM.

For the compound `Cc1onc(-c2ccccc2)c1C(=O)N1CCN(c2ccc([N+](=O)[O-])cc2Cl)CC1` [nucleozin, reference compound], the “effect of compounds” value at NP WT trimer is “caused aggregation of the NP trimer”.

With `CC(C)[C@@H]1NC(=O)[C@H](CO)NC(=O)[C@H](Cc2ccccc2)NC(=O)[C@H]([C@@H](C)O)NC(=O)[C@@H](N)CSSC[C@@H](C(=O)O)NC(=O)[C@H](CC(N)=O)NC(=O)[C@H](CCCNC(=N)N)NC(=O)[C@H](CCC(N)=O)NC1=O` [peptide 2], at NP WT trimer, the “effect of peptides on WT NP trimerization (AUC)” value (from here on “effect of peptides”) is on record as “the effect was substantially enhanced”. Also, the CC50 at 48 h in data set [1] is over 2000 µM. Further, the “inhibition of viral transcription activity” value in data set [2] is listed as “reduce the viral transcription activity”.

Turning to `CC(C)C[C@@H]1NC(=O)[C@H](CC(N)=O)NC(=O)[C@H](CCCNC(=N)N)NC(=O)[C@H](CCC(N)=O)NC(=O)[C@H](C(C)C)NC(=O)[C@H](CO)NC(=O)[C@H](Cc2ccccc2)NC(=O)[C@H]([C@@H](C)O)NC(=O)[C@@H]2CCCN2C(=O)[C@H](CCC(N)=O)NC(=O)[C@@H](N)CSSC[C@@H](C(=O)O)NC1=O` [peptide 3] (H-CQPTFSVQRNLC-OH; disulfide 1-12), the “effect of peptides” value on NP WT trimer was “showed a slightly greater effect”. The CC50 at 48 h in data set [1] is over 2000 µM. Moreover, in data set [2], the “inhibition of viral transcription activity” value is recorded as “reduce the viral transcription activity”.

As to TFDSVQRN [peptide 1], at NP WT trimer, the “effect of peptides” value is “disrupted WT NP trimerization only slightly”.

The values are drawn from patent publication US20130040952A1 (priority 2011, published 2013).
